For 17 compounds, IC50 results are on record in ChEMBL document CHEMBL1938345, “Design, synthesis and cytotoxic activity of novel spin-labeled rotenone derivatives” (Bioorg Med Chem Lett, 2012).

The IC50 is the midpoint of a concentration-inhibition curve.

Molecules are shown by their SMILES. ≈ marks a conversion by molar mass, not a printed value.

Assay type in all cases: functional, cell-based
For assay [1], the system named is A549. Description: Cytotoxicity against human A549 cells by SRB assay.
The subject of assay [2] is DU-145. The assay can be described thus: Cytotoxicity against human DU145 cells by SRB assay. In general terms: The SRB assay estimates cell density from bound dye.
Assay [3] is described as follows: Cytotoxicity against human KBVIN cells by SRB assay.
Assay [4] concerns KB. Description: Cytotoxicity against human KB cells by SRB assay.
Where [5] appears, read: Homo sapiens, DU-145, read-out: IC50.
Setting [6] is: Homo sapiens, KBVIN, read-out: IC50.
Where [7] appears, read: Homo sapiens, KB, read-out: IC50.

In the case of `C=C(C)[C@H]1Cc2c(ccc3c2O[C@@H]2COc4cc(OC)c(OC)cc4[C@@H]2/C3=N\OC(=O)C2CC(C)(C)N([O])C2(C)C)O1` (some centres not stated), the IC50 in assay [1] (a549) is 0.471 µg/mL (≈ 0.815 µM); in assay [2] (du-145) it was 0.322 µg/mL (≈ 0.557 µM); in assay [3] (kbvin) it was 0.298 µg/mL (≈ 0.516 µM); in assay [4] (kb) it was 0.56 µg/mL (≈ 0.969 µM).
On the same counts, the results for `C=C(C)[C@H]1Cc2c(ccc3c2O[C@@H]2COc4cc(OC)c(OC)cc4[C@@H]2[C@@H]3OC(=O)C2=CC(C)(C)N([O])C2(C)C)O1` are 0.408 µg/mL (≈ 0.725 µM), 0.223 µg/mL (≈ 0.396 µM), 0.075 µg/mL (≈ 0.133 µM) and 0.273 µg/mL (≈ 0.485 µM).
In the same order, the values of `C=C(C)[C@H]1Cc2c(ccc3c2O[C@@H]2COc4cc(OC)c(OC)cc4[C@@H]2[C@@H]3OC(=O)C2CC(C)(C)N([O])C2(C)C)O1` (some centres not stated) are 0.533 µg/mL (≈ 0.944 µM), 0.277 µg/mL (≈ 0.491 µM), 0.241 µg/mL (≈ 0.427 µM) and 0.443 µg/mL (≈ 0.785 µM).
In the same order, the values of `C=C(C)[C@H]1Cc2c(ccc3c2O[C@@H]2COc4cc(OC)c(OC)cc4[C@@H]2[C@@H]3OC(=O)C2=CC(C)(C)N([O])C(C)(C)C2)O1` are 0.578 µg/mL (≈ 1 µM), 0.322 µg/mL (≈ 0.558 µM), 0.299 µg/mL (≈ 0.518 µM) and 0.427 µg/mL (≈ 0.74 µM).
`C=C(C)[C@H]1Cc2c(ccc3c2O[C@@H]2COc4cc(OC)c(OC)cc4[C@@H]2[C@@H]3OC(=O)C2CC(C)(C)N([O])C(C)(C)C2)O1`: the IC50 was determined as 0.523 µg/mL (≈ 0.904 µM) in assay [1] (a549), 0.266 µg/mL (≈ 0.46 µM) in assay [2] (du-145), 0.092 µg/mL (≈ 0.159 µM) in assay [3] (kbvin) and 0.408 µg/mL (≈ 0.705 µM) in assay [4] (kb).
As for `C=C(C)[C@H]1Cc2c(ccc3c2O[C@@H]2COc4cc(OC)c(OC)cc4[C@@H]2/C3=N\OC(=O)C2=CC(C)(C)N([O])C2(C)C)O1`, the IC50 in assay [1] (a549) came out at 0.738 µg/mL (≈ 1.28 µM); in assay [2] (du-145) it was 0.426 µg/mL (≈ 0.74 µM); in assay [3] (kbvin), 0.62 µg/mL (≈ 1.08 µM); in assay [4] (kb), 0.633 µg/mL (≈ 1.1 µM).
In the same order, the values of `C=C(C)[C@H]1Cc2c(ccc3c2O[C@@H]2COc4cc(OC)c(OC)cc4[C@@H]2/C3=N\OC(=O)C2=CC(C)(C)N([O])C(C)(C)C2)O1` are 0.542 µg/mL (≈ 0.919 µM), 0.358 µg/mL (≈ 0.607 µM), 0.162 µg/mL (≈ 0.275 µM) and 0.575 µg/mL (≈ 0.975 µM).
In the same order, the values of `C=C(C)[C@H]1Cc2c(ccc3c2O[C@@H]2COc4cc(OC)c(OC)cc4[C@@H]2/C3=N\OC(=O)C2CC(C)(C)N([O])C(C)(C)C2)O1` are 0.651 µg/mL (≈ 1.1 µM), 0.488 µg/mL (≈ 0.825 µM), 0.358 µg/mL (≈ 0.605 µM) and 0.523 µg/mL (≈ 0.884 µM).
In the same order, the values of `C=C(C)[C@H]1Cc2c(ccc3c2O[C@@H]2COc4cc(OC)c(OC)cc4[C@@H]2[C@@H]3OC(=O)CNC(=O)OC2CC(C)(C)N([O])C(C)(C)C2)O1` are 0.624 µg/mL (≈ 0.957 µM), 0.45 µg/mL (≈ 0.69 µM), 0.41 µg/mL (≈ 0.629 µM) and 0.51 µg/mL (≈ 0.783 µM).
With `C=C(C)[C@H]1Cc2c(ccc3c2O[C@@H]2COc4cc(OC)c(OC)cc4[C@@H]2[C@@H]3OC(=O)[C@H](C)NC(=O)OC2CC(C)(C)N([O])C(C)(C)C2)O1`, the IC50 in assay [1] (a549) was 0.65 µg/mL (≈ 0.976 µM); in assay [2] (du-145), 0.417 µg/mL (≈ 0.626 µM); in assay [3] (kbvin), 0.357 µg/mL (≈ 0.536 µM); in assay [4] (kb), 0.442 µg/mL (≈ 0.664 µM).
For `C=C(C)[C@H]1Cc2c(ccc3c2O[C@@H]2COc4cc(OC)c(OC)cc4[C@@H]2[C@@H]3OC(=O)[C@@H](NC(=O)OC2CC(C)(C)N([O])C(C)(C)C2)C(C)C)O1`, the IC50 in assay [1] (a549) worked out at 0.615 µg/mL (≈ 0.886 µM); in assay [2] (du-145) it was 0.451 µg/mL (≈ 0.65 µM); in assay [3] (kbvin), 0.381 µg/mL (≈ 0.549 µM); in assay [4] (kb), 0.497 µg/mL (≈ 0.716 µM).
In the same order, the values of `C=C(C)[C@H]1Cc2c(ccc3c2O[C@@H]2COc4cc(OC)c(OC)cc4[C@@H]2[C@@H]3OC(=O)[C@H](CC(C)C)NC(=O)OC2CC(C)(C)N([O])C(C)(C)C2)O1` are 0.521 µg/mL (≈ 0.736 µM), 0.443 µg/mL (≈ 0.626 µM), 0.355 µg/mL (≈ 0.502 µM) and 0.483 µg/mL (≈ 0.682 µM).
Turning to `C=C(C)[C@H]1Cc2c(ccc3c2O[C@@H]2COc4cc(OC)c(OC)cc4[C@@H]2[C@@H]3OC(=O)[C@@H](NC(=O)OC2CC(C)(C)N([O])C(C)(C)C2)C(C)CC)O1` (some centres not stated), the IC50 in assay [1] (a549) was found to be 0.649 µg/mL (≈ 0.917 µM); in assay [2] (du-145), 0.396 µg/mL (≈ 0.559 µM); in assay [3] (kbvin), 0.399 µg/mL (≈ 0.564 µM); in assay [4] (kb) it was 0.516 µg/mL (≈ 0.729 µM).
For `C=C(C)[C@H]1Cc2c(ccc3c2O[C@@H]2COc4cc(OC)c(OC)cc4[C@@H]2[C@@H]3OC(=O)[C@H](Cc2ccccc2)NC(=O)OC2CC(C)(C)N([O])C(C)(C)C2)O1`, the IC50 in assay [1] (a549) was found to be 0.713 µg/mL (≈ 0.961 µM); in assay [2] (du-145), 0.462 µg/mL (≈ 0.623 µM); in assay [3] (kbvin), 0.383 µg/mL (≈ 0.516 µM); in assay [4] (kb), 0.509 µg/mL (≈ 0.686 µM).
For `C=C(C)[C@H]1Cc2c(ccc3c2O[C@@H]2COc4cc(OC)c(OC)cc4[C@@H]2[C@@H]3OC(=O)[C@H](Cc2c[nH]c3ccccc23)NC(=O)OC2CC(C)(C)N([O])C(C)(C)C2)O1`, the IC50 in assay [1] (a549) came to 0.631 µg/mL (≈ 0.808 µM); in assay [2] (du-145) it was 0.477 µg/mL (≈ 0.611 µM); in assay [3] (kbvin), 0.414 µg/mL (≈ 0.53 µM); in assay [4] (kb), 0.565 µg/mL (≈ 0.724 µM).
Take `CC(=O)O[C@H]1C(=O)[C@@]2(C)[C@H]([C@H](OC(=O)c3ccccc3)[C@]3(O)C[C@H](OC(=O)[C@H](O)[C@@H](NC(=O)c4ccccc4)c4ccccc4)C(C)=C1C3(C)C)[C@]1(OC(C)=O)CO[C@@H]1C[C@@H]2O` [PACLITAXEL]: the IC50 in assay [2] (setting [5]) stood at 0.0037 µg/mL (≈ 0.00433 µM); in assay [3] (setting [6]) it was 1.15 µg/mL (≈ 1.34 µM); in assay [4] (setting [7]) it was 0.0048 µg/mL (≈ 0.00562 µM).
With `C=C(C)[C@H]1Cc2c(ccc3c2O[C@@H]2COc4cc(OC)c(OC)cc4[C@@H]2C3=O)O1` [ROTENONE], the IC50 turned out to be 0.901 µg/mL (≈ 2.28 µM) in assay [1] (Homo sapiens, A549, read-out: IC50); 0.465 µg/mL (≈ 1.18 µM) in assay [2] (setting [5]); 0.595 µg/mL (≈ 1.51 µM) in assay [3] (setting [6]); 0.513 µg/mL (≈ 1.3 µM) in assay [4] (setting [7]).
